{"source": "patent US20090312406A1", "about": "“COUMARIN COMPOUNDS AND THEIR USE FOR TREATING VIRAL INFECTION” (priority 2008, published 2009)", "key": {"HIV-1": {"system": "HIV-1", "experiment": "Inhibition of HIV-1 replication in peripheral blood mononuclear cells, viral RNA by real-time PCR", "settings": "Human immunodeficiency virus 1, PBMC"}, "[1]": {"system": "Influenza A/WSN/33 (H1N1) virus", "experiment": "In vitro anti-influenza virus assay (neutralization test), cytopathic effect on MDCK cells", "assay_type": "cell-based", "settings": "MDCK cells, 72 h, read-out: IC50 (concentration reducing virus-induced cytopathic effect by 50%)", "description": "Anti-influenza activities of the coumarin compounds were evaluated by measuring the ability of a test compound to inhibit the cytopathic effect induced by an influenza virus on MDCK cells. The 96-well tissue culture plates were seeded with 200 μL of MDCK cells at a concentration of 1.1×10^5 cells/mL in DMEM with 10% fetal bovine serum (FBS). The plates were incubated for 24-30 h at 37° C. and were used at about 90% confluency. Influenza A/WSN/33 (H1N1) virus (100 TCID50) was added to the cells and incubated at 35° C. for 1 h. After adsorption, the infected cell plates were overlaid with 50 μL of DMEM plus 2% FBS and a test compound with different concentrations. The plate was incubated at 35° C. for 72 h. At the end of incubation, the plates were fixed by the addition of 100 μL of 4% formaldehyde for 1 h at room temperature. After the removal of formaldehyde, the plates were stained with 0.1% crystal violet for 15 min at room temperature. The plates were washed and dried, and the density of the well was measured at 570 nm. The concentration required for a test compound to reduce the virus-induced cytopathic effect (CPE) by 50% relative to the virus control was expressed as IC50.\nCompounds 1 and 95 were also tested on various influenza virus strains. Amantadine or Relenza was also tested for comparison. IC50 is defined as the concentration required for a test compound to reduce the virus-induced cytopathic effect (CPE) by 50% relative to the virus control."}, "[2]": {"system": "herpes simplex virus type 1", "experiment": "In vitro assessment of anti-HSV activity, plaque reduction assay in Vero cells (Example 8)", "assay_type": "cell-based", "settings": "for SI, selectivity index = CC50/EC50: CC50/EC50, HSV-1; for EC50: Human alphaherpesvirus 1, herpes simplex virus type 1, Vero cells, plaque reduction, 72 h, read-out: EC50 (μM), 50% effective concentration", "description": "Anti-HSV activities of compounds described herein were evaluated by performing a plaque reduction assay using monolayer cultures of Vero cells in 24-well culture plates. A cell monolayer was infected with herpes simplex virus type 1 (50 pfu/well) and incubated at 37° C. with 5% CO2 for 1 h. The infected cell monolayer was then washed three times with PBS and overlaid with a solution (maintenance medium containing 1% methylcellulose and various concentrations of a test compound). After 72 h of incubation at 37° C., the cell monolayer was fixed with 10% formalin and stained with 1% crystal violet. […] The minimal concentration of a compound required to reduce 50% of plaque numbers (EC50) was calculated by regression analysis of the dose-response curves generated from the plaque assay."}, "[3]": {"experiment": "Cytotoxicity (CC50) of the compounds tested in the anti-HSV assay", "assay_type": "cell-based", "settings": "African green monkey, Vero cells; Table 5; read-out: CC50 (μM), 50% cytotoxicity concentration"}, "[4]": {"settings": "72 h, read-out: Inhibition (%) Day 3"}, "[5]": {"settings": "120 h, read-out: Inhibition (%) Day 5"}, "[6]": {"settings": "168 h, read-out: Inhibition (%) Day 7"}, "[7]": {"settings": "lower bound (10 nM), upper in μM"}}, "note": "Read-outs that look alike come from different tables or passages of the source."}
{"compound": "Cc1cn([C@H]2C[C@H](N=[N+]=[N-])[C@@H](CO)O2)c(=O)[nH]c1=O", "note": "[AZT, zidovudine, reference compound]", "values": [{"measurement": "inhibition at 0.05 µM", "setting": "HIV-1; [4]", "value": 6, "unit": "%"}, {"measurement": "inhibition at 0.05 µM", "setting": "HIV-1; [5]", "value": 71, "unit": "%"}, {"measurement": "inhibition at 0.05 µM", "setting": "HIV-1; [6]", "value": 88, "unit": "%"}]}
{"compound": "Cc1cc(=O)oc2c1ccc1oc(C(=O)c3cccc(O)c3)c(-c3ccccc3)c12", "note": "[Compound 33]", "values": [{"measurement": "IC50", "setting": "[1]; [7]", "value": "10 to 999", "unit": "nM"}, {"measurement": "SI, selectivity index = CC50/EC50", "setting": "[2]", "value": 235.972}, {"measurement": "EC50", "setting": "[2]", "value": 0.396, "unit": "µM"}, {"measurement": "CC50", "setting": "[3]", "value": 93.4, "unit": "µM"}, {"measurement": "inhibition at 0.1 µM", "setting": "HIV-1; [4]", "value": 5, "unit": "%"}, {"measurement": "inhibition at 0.1 µM", "setting": "HIV-1; [5]", "value": 98, "unit": "%"}, {"measurement": "inhibition at 0.1 µM", "setting": "HIV-1; [6]", "value": 99.5, "unit": "%"}]}
{"compound": "Cc1cc(=O)oc2c1ccc1oc(C(=O)c3ccccc3)c(-c3ccc(F)cc3)c12", "note": "[Compound 134]", "values": [{"measurement": "IC50", "setting": "[1]; [7]", "value": "10 to 999", "unit": "nM"}, {"measurement": "SI, selectivity index = CC50/EC50", "setting": "[2]", "value": ">3095.975"}, {"measurement": "EC50", "setting": "[2]", "value": 0.0323, "unit": "µM"}, {"measurement": "CC50", "setting": "[3]", "value": "> 100", "unit": "µM"}, {"measurement": "inhibition at 0.1 µM", "setting": "HIV-1; [4]", "value": 61, "unit": "%"}, {"measurement": "inhibition at 0.1 µM", "setting": "HIV-1; [5]", "value": 91, "unit": "%"}, {"measurement": "inhibition at 0.1 µM", "setting": "HIV-1; [6]", "value": 96, "unit": "%"}]}
{"compound": "Cc1cc(=O)oc2c1ccc1oc(C(=O)c3ccccc3)c(-c3ccc(Br)cc3)c12", "note": "[Compound 140]", "values": [{"measurement": "IC50", "setting": "[1]; [7]", "value": "10 to 999", "unit": "nM"}, {"measurement": "SI, selectivity index = CC50/EC50", "setting": "[2]", "value": ">291.545"}, {"measurement": "EC50", "setting": "[2]", "value": 0.343, "unit": "µM"}, {"measurement": "CC50", "setting": "[3]", "value": "> 100", "unit": "µM"}, {"measurement": "inhibition at 0.1 µM", "setting": "HIV-1; [4]", "value": 19, "unit": "%"}, {"measurement": "inhibition at 0.1 µM", "setting": "HIV-1; [5]", "value": 65, "unit": "%"}, {"measurement": "inhibition at 0.1 µM", "setting": "HIV-1; [6]", "value": 93, "unit": "%"}]}
{"compound": "Cc1cccc(-c2c(C(=O)c3ccccc3)oc3ccc4c(C)cc(=O)oc4c23)c1", "note": "[Compound 141]", "values": [{"measurement": "IC50", "setting": "[1]; [7]", "value": "10 to 999", "unit": "nM"}, {"measurement": "SI, selectivity index = CC50/EC50", "setting": "[2]", "value": ">25641.03"}, {"measurement": "EC50", "setting": "[2]", "value": 0.0039, "unit": "µM"}, {"measurement": "CC50", "setting": "[3]", "value": "> 100", "unit": "µM"}, {"measurement": "inhibition at 0.1 µM", "setting": "HIV-1; [4]", "value": 19, "unit": "%"}, {"measurement": "inhibition at 0.1 µM", "setting": "HIV-1; [5]", "value": 71, "unit": "%"}, {"measurement": "inhibition at 0.1 µM", "setting": "HIV-1; [6]", "value": 97, "unit": "%"}]}
{"compound": "COc1cccc(C(=O)c2oc3ccc4c(C)cc(=O)oc4c3c2-c2cccc(Br)c2)c1", "note": "[Compound 256]", "values": [{"measurement": "IC50", "setting": "[1]; [7]", "value": "10 to 999", "unit": "nM"}]}
{"compound": "Cc1cc(=O)oc2c1ccc1oc(C(=O)c3cccs3)c(-c3cccs3)c12", "note": "[Compound 257]", "values": [{"measurement": "IC50", "setting": "[1]; [7]", "value": "10 to 999", "unit": "nM"}]}
{"compound": "Cc1cc(=O)oc2c1ccc1oc(C(=O)c3cccs3)c(-c3cccc(Br)c3)c12", "note": "[Compound 259]", "values": [{"measurement": "IC50", "setting": "[1]; [7]", "value": "10 to 999", "unit": "nM"}]}
{"compound": "CCOc1cccc(C(=O)c2oc3ccc4c(C)cc(=O)oc4c3c2-c2cccc(Br)c2)c1", "note": "[Compound 260]", "values": [{"measurement": "IC50", "setting": "[1]; [7]", "value": "10 to 999", "unit": "nM"}]}
{"compound": "CCCCOc1cccc(C(=O)c2oc3ccc4c(C)cc(=O)oc4c3c2-c2cccc(Br)c2)c1", "note": "[Compound 262]", "values": [{"measurement": "IC50", "setting": "[1]; [7]", "value": "10 to 999", "unit": "nM"}]}
{"compound": "CCCCCOc1cccc(C(=O)c2oc3ccc4c(C)cc(=O)oc4c3c2-c2cccc(Br)c2)c1", "note": "[Compound 263]", "values": [{"measurement": "IC50", "setting": "[1]; ranges given", "value": "1000 to 5900", "unit": "nM"}]}
